From PubChem BioAssay AID1963834 (Molecular Pharmacology Branch, DTP, NCI, 2024)

System: 873145-292-R-J1-PDC complex spheroid viability
Assay: Anticancer human tumor 873145-292-R-J1-PDC patient-derived renal clear cell carcinoma cell line growth inhibition [POLQ]
Conditions: for IC50: curve of first compound; for viability, T/C: stronger effect = lower value
Method in brief: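 Patient-derived tumour cells were co-cultured with HUVEC and mesenchymal stem cells as multicellular spheroids at 37 °C. They were treated with POLQ inhibitors (novobiocin, ART-558, RP6685) alone or combined with other agents. Top concentrations were at or near clinical Cmax (otherwise 10 microM; SN-38 at 1 microM), decreasing in half-log steps.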
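Note: spheroids exposed to compounds for 7 days before viability readout.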
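Throughout, for viability, T/C: luminescence signal used as surrogate for viable cell content; 100% = DMSO vehicle control viability.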

**Q.** For `C#Cc1c(F)ccc2cc(O)cc(-c3ncc4c(N5CC6CCC(C5)N6)nc(OCC56CCCN5CC(F)C6)nc4c3F)c12` (configuration not stated) + Cc1cccc(N(C)C(=O)C2C(O)CCN2c2nc(C)cc(C(F)(F)F)c2C#N)c1, which IC50 (second compound 0.0316 µM) is on record?
**A.** The IC50 was over 10 µM.

**Q.** What about the IC50 (second compound 0.1 µM) of the same molecule?
**A.** The IC50 was over 10 µM.

**Q.** What about the IC50 (second compound 0.316 µM) of the same molecule?
**A.** The IC50 was over 10 µM.

**Q.** And the IC50 (second compound 1 µM)?
**A.** Its IC50 is over 10 µM.

**Q.** What about the IC50 (second compound 3.16 µM) of the same molecule?
**A.** The IC50 was over 10 µM.

**Q.** And the IC50 (second compound 10 µM)?
**A.** Its IC50 is over 10 µM.

**Q.** What about the viability, T/C (second compound 0.0316 µM, first compound 0.0316 µM) of the same molecule?
**A.** Its viability, T/C is 94.5%.

**Q.** And the viability, T/C (second compound 0.0316 µM, first compound 0.1 µM)?
**A.** Its viability, T/C is 112%.

**Q.** And the viability, T/C (second compound 0.0316 µM, first compound 0.316 µM)?
**A.** Its viability, T/C is 88%.

**Q.** What about the viability, T/C (second compound 0.0316 µM, first compound 1 µM) of the same molecule?
**A.** The viability, T/C was 91%.

**Q.** And the viability, T/C (second compound 0.0316 µM, first compound 3.16 µM)?
**A.** Its viability, T/C is 98%.

**Q.** And the viability, T/C (second compound 0.0316 µM, first compound 10 µM)?
**A.** The viability, T/C was 88.8%.

**Q.** What about the viability, T/C (second compound 0.1 µM, first compound 0.0316 µM) of the same molecule?
**A.** The viability, T/C was 103%.

**Q.** And the viability, T/C (second compound 0.1 µM, first compound 0.1 µM)?
**A.** The viability, T/C was 97.4%.

**Q.** What about the viability, T/C (second compound 0.1 µM, first compound 0.316 µM) of the same molecule?
**A.** Its viability, T/C is 89.5%.

**Q.** And the viability, T/C (second compound 0.1 µM, first compound 1 µM)?
**A.** The viability, T/C was 89%.

**Q.** What about the viability, T/C (second compound 0.1 µM, first compound 3.16 µM) of the same molecule?
**A.** Its viability, T/C is 102%.

**Q.** What about the viability, T/C (second compound 0.1 µM, first compound 10 µM) of the same molecule?
**A.** Its viability, T/C is 92.1%.

**Q.** And the viability, T/C (second compound 0.316 µM, first compound 0.0316 µM)?
**A.** Its viability, T/C is 96%.

**Q.** And the viability, T/C (second compound 0.316 µM, first compound 0.1 µM)?
**A.** The viability, T/C was 94.6%.

**Q.** And the viability, T/C (second compound 0.316 µM, first compound 0.316 µM)?
**A.** Its viability, T/C is 107%.

**Q.** What about the viability, T/C (second compound 0.316 µM, first compound 1 µM) of the same molecule?
**A.** Its viability, T/C is 92.1%.

**Q.** And the viability, T/C (second compound 0.316 µM, first compound 3.16 µM)?
**A.** Its viability, T/C is 87.3%.

**Q.** What about the viability, T/C (second compound 0.316 µM, first compound 10 µM) of the same molecule?
**A.** Its viability, T/C is 90.7%.

**Q.** What about the viability, T/C (second compound 1 µM, first compound 0.0316 µM) of the same molecule?
**A.** Its viability, T/C is 99.8%.

**Q.** And the viability, T/C (second compound 1 µM, first compound 0.1 µM)?
**A.** Its viability, T/C is 89.2%.

**Q.** What about the viability, T/C (second compound 1 µM, first compound 0.316 µM) of the same molecule?
**A.** The viability, T/C was 91.2%.

**Q.** And the viability, T/C (second compound 1 µM, first compound 1 µM)?
**A.** Its viability, T/C is 93.7%.

**Q.** What about the viability, T/C (second compound 1 µM, first compound 3.16 µM) of the same molecule?
**A.** Its viability, T/C is 95.1%.

**Q.** What about the viability, T/C (second compound 1 µM, first compound 10 µM) of the same molecule?
**A.** Its viability, T/C is 88.8%.

**Q.** What about the viability, T/C (second compound 3.16 µM, first compound 0.0316 µM) of the same molecule?
**A.** The viability, T/C was 87.1%.

**Q.** And the viability, T/C (second compound 3.16 µM, first compound 0.1 µM)?
**A.** Its viability, T/C is 84.5%.

**Q.** And the viability, T/C (second compound 3.16 µM, first compound 0.316 µM)?
**A.** Its viability, T/C is 89.6%.

**Q.** And the viability, T/C (second compound 3.16 µM, first compound 1 µM)?
**A.** The viability, T/C was 95.9%.

**Q.** What about the viability, T/C (second compound 3.16 µM, first compound 3.16 µM) of the same molecule?
**A.** The viability, T/C was 85.1%.

**Q.** What about the viability, T/C (second compound 3.16 µM, first compound 10 µM) of the same molecule?
**A.** The viability, T/C was 89.6%.

**Q.** What about the viability, T/C (second compound 10 µM, first compound 0.0316 µM) of the same molecule?
**A.** The viability, T/C was 86.5%.

**Q.** What about the viability, T/C (second compound 10 µM, first compound 0.1 µM) of the same molecule?
**A.** Its viability, T/C is 95.8%.

**Q.** And the viability, T/C (second compound 10 µM, first compound 0.316 µM)?
**A.** Its viability, T/C is 95.8%.

**Q.** What about the viability, T/C (second compound 10 µM, first compound 1 µM) of the same molecule?
**A.** The viability, T/C was 94.4%.

**Q.** What about the viability, T/C (second compound 10 µM, first compound 3.16 µM) of the same molecule?
**A.** Its viability, T/C is 82.5%.

**Q.** And the viability, T/C (second compound 10 µM, first compound 10 µM)?
**A.** The viability, T/C was 86.9%.
